Measurements as given in ChEMBL document CHEMBL1201862, “PubChem BioAssay data set” (2004).
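Briefly, cells in 96-well plates were exposed to five compound concentrations for 48 h, and endpoints were estimated by linear interpolation. The concentration for 50% growth inhibition is given as GI50.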 The source made the active and inactive calls. No stated cut-off is given here; in the data, active = GI50 up to about 1.1 µM and inactive = higher. *1 amine or outer side, *2 acyl side, *3 side chain or, on linkers, in order; H or OH if unused. Where a SMILES comes first, the peptide text is derived from it. Bridges are numbered along the chain shown (N, C = ends). Roman numbers before positions name the chains, in order. [ ]: non-standard residue; d: D form. Actinocin(9to1) = Cc1c2oc3c(C)ccc(C(=O)[*:1])c3nc-2c(C(=O)[*:2])c(N)c1=O; NMeV = CN[CH](C(=O)O)C(C)C; Sar = CNCC(=O)O

Legend:
Experiment in all cases: NCI tumour cell line growth inhibition, 48 h
HL-60 = tested on: HL-60
UACC-257 = tested on: UACC-257
NCI-H522 = tested on: NCI-H522
NCI-H226 = tested on: NCI-H226
SF-268 = tested on: SF-268
UO-31 = tested on: UO-31
NCI-H23 = tested on: NCI-H23
MDA-MB-231 = tested on: MDA-MB-231
A498 = tested on: A498
HCT-15 = tested on: HCT-15
ACHN = tested on: ACHN
Hs-578T = tested on: Hs-578T
DU-145 = tested on: DU-145
KM12 = tested on: KM12
CCRF-CEM = tested on: CCRF-CEM
PC-3 = tested on: PC-3
MDA-MB-435 = tested on: MDA-MB-435
SF-295 = tested on: SF-295
MDA-N = tested on: MDA-N
MCF7 = tested on: MCF7

Compound | GI50 (HL-60) | GI50 (UACC-257) | GI50 (NCI-H522) | GI50 (NCI-H226) | GI50 (SF-268) | GI50 (UO-31) | GI50 (NCI-H23) | GI50 (MDA-MB-231) | GI50 (A498) | GI50 (HCT-15) [µM] | GI50 (ACHN) | GI50 (Hs-578T) | GI50 (DU-145) | GI50 (KM12) | GI50 (CCRF-CEM) | GI50 (PC-3) | GI50 (MDA-MB-435) | GI50 (SF-295) | GI50 (MDA-N) | GI50 (MCF7)
Cc1c2oc3c(C)ccc(C(=O)NC4C(=O)NC(Cc5ccccc5)C(=O)N5CCCC5C(=O)N(C)CC(=O)N(C)C(C(C)C)C(=O)OC4C)c3nc-2c(C(=O)NC2C(=O)NC(Cc3ccccc3)C(=O)N3CCCC3C(=O)N(C)CC(=O)N(C)C(C(C)C)C(=O)OC2C)c(N)c1=O (stereo not given) (I: TFP[Sar][NMeV] / II: TFP[Sar][NMeV]; ester I:1-I:C, II:1-II:C; linker I:N-II:N via Actinocin(9to1); configuration not given here) | < 0.001 µM (active) | < 0.001 µM (active) | < 0.001 µM (active) | < 0.001 µM (active) | < 0.001 µM (active) | 0.00354 µM (active) | < 0.001 µM (active) | 0.022 µM (active) | 0.00204 µM (active) | 0.0296 | < 0.001 µM (active) | 0.0011 µM (active) | < 0.001 µM (active) | < 0.001 µM (active) | < 0.001 µM (active) | < 0.001 µM (active) | < 0.001 µM (active) | < 0.001 µM (active) | 0.00162 µM (active) | < 0.001 µM (active)
COC1(C)CP(=O)(OC(C)C)CC(C)=C1Cl (stereo not given) | 10.9 µM (inactive) | 16.9 µM (inactive) | 9.62 µM (inactive) | 12.5 µM (inactive) | 32.2 µM (inactive) | 17.8 µM (inactive) | 10.7 µM (inactive) | 15.9 µM (inactive) | 9.42 µM (inactive) | 12.3 | 18.4 µM (inactive) | 9.84 µM (inactive) | 19.3 µM (inactive) | 15.5 µM (inactive) | 3.66 µM (inactive) | 25.5 µM (inactive) | 13.6 µM (inactive) | 11.8 µM (inactive) | 13.2 µM (inactive) | 4.67 µM (inactive)
COC1CC(OC2CCC3(C)C(=CCC4C3C(OC(C)=O)C(OC(=O)CC(C)C)C3(C)C(C(C)=O)CCC43O)C2)OC(C)C1OC1CC(OC)C(OC2CC(OC)C(OC3OC(C)C(O)C(OC)C3O)C(C)O2)C(C)O1 (stereo not given) | 14.9 µM (inactive) | 28.8 µM (inactive) | 37.9 µM (inactive) | 30.5 µM (inactive) | 54.1 µM (inactive) | 26.1 µM (inactive) | 34 µM (inactive) | 26.5 µM (inactive) | > 100 µM (inactive) | 27.3 | 31.6 µM (inactive) | 49.8 µM (inactive) | 40.6 µM (inactive) | 33.1 µM (inactive) | 22.6 µM (inactive) | 18.5 µM (inactive) | 25.1 µM (inactive) | 33 µM (inactive) | 32.1 µM (inactive) | 21.9 µM (inactive)
CCCCC1(N=[N+]=[N-])C(=O)C2C=CC=C3c4ccccc4N(C1=O)C32 (stereo not given) | 34 µM (inactive) | 18.4 µM (inactive) | 13.6 µM (inactive) | 21.3 µM (inactive) | 19.9 µM (inactive) | 18.8 µM (inactive) | 14.4 µM (inactive) | 23.6 µM (inactive) | > 10 µM (inactive) | 17.2 | 17.5 µM (inactive) | 12.3 µM (inactive) | 58.5 µM (inactive) | 24.8 µM (inactive) | 18.5 µM (inactive) | 18.9 µM (inactive) | 19.1 µM (inactive) | 24.7 µM (inactive) | 15.7 µM (inactive) | 17.1 µM (inactive)
Nc1nc(Cl)c(/N=N/c2ccc(Cl)cc2)c(NCC2(CO)CCC(CCc3ccccc3)C2)n1 (stereo not given) | 4.14 µM (inactive) | 10.6 µM (inactive) | 1.31 µM (inactive) | 1.91 µM (inactive) | 6.22 µM (inactive) | 2.1 µM (inactive) | 1.26 µM (inactive) | 12.2 µM (inactive) | 13.2 µM (inactive) | 6.87 | 5.97 µM (inactive) | 8.51 µM (inactive) | 13.2 µM (inactive) | 13.2 µM (inactive) | 1.21 µM (inactive) | 12.2 µM (inactive) | 9.98 µM (inactive) | 11 µM (inactive) | 11.4 µM (inactive) | 5.62 µM (inactive)
NC(=S)N/N=C1/CCCC2CCCC[C@@H]12 (stereo not given in full) | > 100 µM (inactive) | > 100 µM (inactive) | 80.4 µM (inactive) | > 100 µM (inactive) | > 100 µM (inactive) | > 100 µM (inactive) | > 100 µM (inactive) | > 100 µM (inactive) | > 100 µM (inactive) | > 100 | > 100 µM (inactive) | 76.4 µM (inactive) | > 100 µM (inactive) | > 100 µM (inactive) | > 100 µM (inactive) | > 100 µM (inactive) | > 100 µM (inactive) | > 100 µM (inactive) | > 100 µM (inactive) | > 100 µM (inactive)
CCN(CCCl)CCCCNc1c2ccccc2nc2ccc(OC)cc12 | 0.0929 µM (active) | 2.67 µM (inactive) | 0.208 µM (active) | 0.102 µM (active) | 0.171 µM (active) | 1.11 µM (active) | 0.276 µM (active) | 0.457 µM (active) | 0.379 µM (active) | 0.752 | 0.178 µM (active) | 1.22 µM (inactive) | 0.336 µM (active) | 0.356 µM (active) | < 0.037 µM (active) | 0.216 µM (active) | 0.427 µM (active) | 0.259 µM (active) | 0.676 µM (active) | 0.0141 µM (active)
